Source: publication PMC8376405 (Protein Science : A Publication of the Protein Society, 2021)

T1: CtTrpAB (Chlamydia trachomatis, UniProt O84172)
T1 sequence (O84172 1-392): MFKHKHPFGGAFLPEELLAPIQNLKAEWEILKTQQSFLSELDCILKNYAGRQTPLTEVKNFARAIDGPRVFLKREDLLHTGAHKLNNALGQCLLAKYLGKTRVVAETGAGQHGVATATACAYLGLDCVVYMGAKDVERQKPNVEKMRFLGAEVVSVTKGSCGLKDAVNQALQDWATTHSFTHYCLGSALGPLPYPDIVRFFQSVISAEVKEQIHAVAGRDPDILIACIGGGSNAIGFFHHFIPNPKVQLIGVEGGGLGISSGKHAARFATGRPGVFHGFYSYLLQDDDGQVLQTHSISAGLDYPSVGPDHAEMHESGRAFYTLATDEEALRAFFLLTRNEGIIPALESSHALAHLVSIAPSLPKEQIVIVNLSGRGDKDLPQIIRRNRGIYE
T1 sequence (O84173 1-253 partner): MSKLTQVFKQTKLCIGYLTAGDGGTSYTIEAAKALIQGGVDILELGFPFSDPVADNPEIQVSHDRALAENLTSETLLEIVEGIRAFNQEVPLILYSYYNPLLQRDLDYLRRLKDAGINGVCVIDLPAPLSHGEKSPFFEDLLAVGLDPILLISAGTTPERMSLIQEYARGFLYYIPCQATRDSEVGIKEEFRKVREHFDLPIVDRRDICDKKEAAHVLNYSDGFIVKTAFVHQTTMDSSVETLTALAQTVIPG


What was measured:
[1] = biological target: T1, CtTrpAB; test: X-ray crystal structure, […] Å; format: binding; details: covalent adduct to beta Lys84 in TrpB; sulfate in the serine site
[2] = substrate: c1ccc2[nH]ccc2c1; test: purified protein; format: biochemical, Chlamydia trachomatis; details: L-Ser co-substrate, 40 uM PLP, 100 mM KCl, pH 8.0, room temperature

Molecule | X-ray crystal structure, 2.42 Å [1] | kcat [2]
Cc1ncc(COP(=O)(O)O)c(C=O)c1O [pyridoxal 5′-phosphate] | The CtTrpB active site, marked by the PLP adduct to βLys84 | 
CtTrpAB (Chlamydia trachomatis D/UW-3/CX) (protein) MFKHKHPFGGAFLPEELLAPIQNLKAEWEILKTQQSFLSELDCILKNYAGRQTPLTEVKNFARAIDGPRVFLKREDLLHTGAHKLNNALGQCLLAKYLGKTRVVAETGAGQHGVATATACAYLGLDCVVYMGAKDVERQKPNVEKMRFLGAEVVSVTKGSCGLKDAVNQALQDWATTHSFTHYCLGSALGPLPYPDIVRFFQSVISAEVKEQIHAVAGRDPDILIACIGGGSNAIGFFHHFIPNPKVQLIGVEGGGLGISSGKHAARFATGRPGVFHGFYSYLLQDDDGQVLQTHSISAGLDYPSVGPDHAEMHESGRAFYTLATDEEALRAFFLLTRNEGIIPALESSHALAHLVSIAPSLPKEQIVIVNLSGRGDKDLPQIIRRNRGIYE |  | 0.352 s⁻¹
